Columns and labels:
[1] = test system: CXCR4 gene expression; assay: CXCR4 gene expression after incubation with dmPGE2; format: cell-based; conditions: 10 μM dmPGE2 for two hours at 37° C.
[2] = test system: CXCR4 surface protein within Lin-CD45lowCD34+7AAD- cells; assay: CXCR4 surface protein on cord blood mononuclear cells after dmPGE2 treatment; format: cell-based; conditions: 10 μM dmPGE2 two hours at 37° C., then additional one hour incubation without dmPGE2
Protocol: Cord blood mononuclear cells (All Cells, Emeryville, Calif.) were thawed in a 37° C. water bath and immediately diluted with 10 mL of pre-warmed IMDM with 10% fetal calf serum and 5 uL of DNase (Life Technologies, Grand Island, N.Y.). The cells were split three ways and centrifuged at 300×g for 10 minutes. The cells were resuspended in STEMSPAN-ACF (Media 1), STEMSPAN-ACF with 5% Dextran-40 (Media 2) or STEMSPAN-ACF with 10% Dextran-40 (Media 3). A subset, 1×10^6 cells, from Media 1 were kept at 4° C. and immediately stained with Lineage Mix-FITC, CXCR4-PE, CD34-APC, and CD45-V450 antibodies from BD Biosciences. All 3 media conditions were split into a vehicle-treated cohort and a 10 μM dmPGE2-treated cohort and incubated at 37° C. for 2 hours. The cells were washed with the same media and incubated at 37° C. for an additional 1 hour. Each cohort was stained with the same antibodies as indicated above. Levels of CXCR4 surface protein within the Lin-CD45^lowCD34+7AAD-cells were analyzed.

Q: How did the CXCR4 gene expression [1] turn out when `CCCCC(C)(C)[C@H](O)/C=C/[C@H]1[C@H](O)CC(=O)[C@@H]1C/C=C\CCCC(=O)O` [dmPGE2, 16,16-dimethyl PGE2] was run?
A: The CXCR4 gene expression was “increased”.

Q: And the CXCR4 surface protein [2]?
A: The CXCR4 surface protein was “increased”.

— patent US11135244B2, “Stem cell culture media and methods of enhancing cell survival” (Fate Therapeutics, Inc., priority 2013, dated 2021)
